Several values for one entry are separate records, joined by “and”; a condition that tells them apart may be missing. Equal values may be shown once.
Columns and labels:
[1] = PCR amplification in vitro (SAR named in the discussion); format: biochemical; conditions: paired with any analog
[2] = test system: semi-synthetic organism (SSO) (strain YZ3); experiment: Replication and UBP retention in vivo in the semi-synthetic organism (streptavidin biotin shift, PAGE), Example 1; format: cell-based, Escherichia coli; conditions: for UBP retention: context 1, dNaMTP 125 μM, dTPT3TP analog 10 μM; for UBP retention in vivo, in words: dTPT3TP analog paired with dNaMTP, discussion; for UBP retention (%): Table 5, dTPT3TP 25 μM
Protocol: All bacteria were cultured in 100 μL of liquid 2×YT media (casein peptone 16 g/L, yeast extract 10 g/L, NaCl 5 g/L) supplemented with potassium phosphate (50 mM, pH 7) in 96-well microwell plates. When noted, antibiotics were used at the following concentrations: chloramphenicol, 5 μg/mL; ampicillin, 100 μg/mL. Cell growth, indicated as OD600, was measured using a Perkin Elmer EnVision 2103 Multilabel Reader with a 590/20 nm filter. Unless otherwise stated, molecular biology reagents were purchased from New England Biolabs (Ipswich, MA) and were used according to the manufacturer's protocols. As necessary, purification of nucleic acids was accomplished by micro-elution columns (Zymo Research Corp; Irvine, CA). All natural oligonucleotides were purchased from IDT (San Diego, CA), and oligonucleotides containing dNaM were synthesized by Biosearch Technologies (Petaluma, CA) with purification by reverse phase cartridge. Unnatural nucleotide triphosphates were prepared, and confirmed by MALDI-TOF and UV/Vis.
Plasmids containing the dNaM-dTPT3 UBP were prepared and used to transform the semi-synthetic organism (SSO). To create a template for in vivo replication assays, Golden Gate assembly was used to construct a derivative of the pUC19 plasmid in which a single dNaM-dTPT3 UBP was embedded within the TK1 sequence ([…]; […]), a context within which the UBP is well replicated in the SSO. Plasmids were then used to transform the SSO (strain YZ3). Following transformation, the SSO was allowed to recover at 37° C. for 1 h in media containing dNaMTP (125 μM) and dTPT3TP (25 μM). Cells were pelleted by centrifugation, resuspended in fresh media lacking unnatural triphosphates, split into 100-μL aliquots and then used to inoculate cultures containing different pairs of unnatural triphosphates at the specified concentrations. When the cell density reached an OD600 of ˜0.7, cells were pelleted and plasmids were recovered and PCR amplified with d5SICSTP and a biotinylated analog of dNaMTP, and UBP retention was determined by comparing the intensity of the streptavidin shifted and unshifted bands via PAGE.

OneTaq DNA polymerase = experiment: PCR amplification fidelity of DNA containing a single UBP (UBP retention in vitro); format: biochemical; conditions: with dTPT3TP, 20 cycles
Excerpt: The fidelity with which DNA containing a single UBP is PCR amplified was explored using OneTaq DNA polymerase. To quantify fidelity, templates containing the dNaM-dTPT3 UBP were amplified with dTPT3TP and dNaMTP, dPTMOTP or dMTMOTP. Two templates were used where the UBP was flanked by different sequence contexts; T1, where X (X=NaM, or after the first round of replication, NaM, PTNO, or MTMO) is flanked by a 5′ dA and a 3′ dT, and which with X=dNaM is well replicated in the SSO, and T2 where X is flanked by a 5′ dC and a 3′ dG, and which with X=dNaM is poorly replicated in the SSO. DNA was amplified for 20 cycles with extension times of either 1 min or 45 s, with the shorter times used to probe amplification efficiency. After amplification, the DNA was purified and UBP retention was characterized via a second PCR amplification using OneTaq and DeepVent DNA polymerases and a biotinylated analog of dNaMTP, whose product was analyzed by PAGE.

SSO (strain YZ3) = experiment: UBP retention in vivo in the SSO (biotin shift assay), Example 2; format: cell-based, Escherichia coli
Excerpt: Thus, to evaluate the UBPs in the in vivo environment of the SSO, Golden Gate assembly was used to construct four derivatives of the pUC19 plasmid containing a single dNaM-dTPT3 UBP, but where it was flanked by one of four different sequence contexts, context 1-4. These sequence contexts show decreasing UBP retention with dNaM-dTPT3. Plasmids were used to transform the SSO (strain YZ3), which was allowed to recover briefly in media containing dTPT3TP and either dNaMTP, dPTMOTP, or dMTMOTP. After transfer to fresh media containing the same triphosphates and ampicillin (to select for plasmid retention), the SSO was allowed to grow to an OD600 of ˜0.7, at which time plasmids were recovered and analyzed for UBP retention the same biotin shift assay described above. FIG. 9 exemplifies the results in vivo.

[3] = target: T1, Klenow fragment of E. coli DNA polymerase I (Escherichia coli, UniProt P00582); experiment: Steady-state kinetic assay of unnatural triphosphate insertion; format: biochemical; conditions: insertion of dXTP opposite dY = dTPT3 in template
T1 construct: the Klenow fragment of E. coli DNA polymerase I
T1 sequence (P00582 324-928): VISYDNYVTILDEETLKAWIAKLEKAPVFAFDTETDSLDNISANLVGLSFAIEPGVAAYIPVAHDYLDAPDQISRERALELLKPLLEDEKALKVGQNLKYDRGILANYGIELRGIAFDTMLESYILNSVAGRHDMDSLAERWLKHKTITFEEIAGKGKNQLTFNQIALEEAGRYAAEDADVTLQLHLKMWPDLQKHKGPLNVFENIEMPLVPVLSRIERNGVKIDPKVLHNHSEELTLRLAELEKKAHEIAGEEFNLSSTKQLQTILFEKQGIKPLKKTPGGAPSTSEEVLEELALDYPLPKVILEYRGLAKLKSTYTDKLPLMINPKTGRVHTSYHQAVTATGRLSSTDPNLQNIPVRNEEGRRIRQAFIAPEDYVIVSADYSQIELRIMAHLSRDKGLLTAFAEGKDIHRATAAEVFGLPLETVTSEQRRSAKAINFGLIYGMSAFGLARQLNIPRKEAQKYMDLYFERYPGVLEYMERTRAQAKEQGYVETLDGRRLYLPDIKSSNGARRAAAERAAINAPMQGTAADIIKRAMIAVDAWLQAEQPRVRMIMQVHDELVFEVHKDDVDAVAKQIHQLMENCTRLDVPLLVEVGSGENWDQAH

[4] = template T1 (5′ dA, 3′ dT), extension time 45 s
[5] = template T1 (5′ dA, 3′ dT), extension time 1 min
[6] = template T2 (5′ dC, 3′ dG), extension time 45 s
[7] = template T2 (5′ dC, 3′ dG), extension time 1 min
[8] = context d(ANaMT) / AXT, dTPT3TP 25 μM, triphosphate 5 μM
[9] = context d(ANaMT) / AXT, dTPT3TP 25 μM, triphosphate 10 μM
[10] = context d(ANaMT), with dTPT3TP, triphosphate 25 μM
[11] = context d(ANaMT), with dTPT3TP, triphosphate 150 μM
[12] = context d(CNaMC), with dTPT3TP, triphosphate 25 μM
[13] = context d(CNaMC), with dTPT3TP, triphosphate 150 μM
[14] = context d(CNaMG), with dTPT3TP, triphosphate 25 μM
[15] = context d(CNaMG), with dTPT3TP, triphosphate 150 μM

Row | SMILES | PCR amplification [1] | UBP retention [2] | UBP retention in vivo, in words [2] | UBP retention after PCR amplification (OneTaq DNA polymerase; [4]) | UBP retention after PCR amplification (OneTaq DNA polymerase; [5]) | UBP retention after PCR amplification (OneTaq DNA polymerase; [6]) | UBP retention after PCR amplification (OneTaq DNA polymerase; [7]) | UBP retention (SSO (strain YZ3); [8]) | UBP retention (SSO (strain YZ3); [9]) | UBP retention (SSO (strain YZ3); [10]) | UBP retention (SSO (strain YZ3); [11]) | UBP retention (SSO (strain YZ3); [12]) | UBP retention (SSO (strain YZ3); [13]) | UBP retention (SSO (strain YZ3); [14]) | UBP retention (SSO (strain YZ3); [15]) | Km [3] | kcat [3] | further results
1 | Cc1ccc2c(=O)n(C3CC(O)C(COP(=O)(O)OP(=O)(O)OP(=O)(O)O)O3)ccc2c1 (centres unmarked) [d5MICSTP] | do not support PCR amplification | significant retention | reasonable retention in vivo |  |  |  |  |  |  |  |  |  |  |  |  |  |  | UBP retention in vivo, in words ([2]; listed as d5MICS): reasonably well, but only at low concentration
2 | O=c1c2ccccc2ccn1C1CC(O)C(COP(=O)(O)OP(=O)(O)OP(=O)(O)O)O1 (centres unmarked) [dICSTP] | do not support PCR amplification | significant retention | reasonable retention in vivo |  |  |  |  |  |  |  |  |  |  |  |  |  |  | UBP retention in vivo, in words ([2]; listed as dICS): reasonably well, but only at low concentration
3 | COc1cc2ccsc2cc1C1CC(O)C(COP(=O)(O)OP(=O)(O)OP(=O)(O)O)O1 (centres unmarked) [dMTMOTP] |  |  |  | 84% | 80% | 58% | 58% | 59% and 59±24% | 80% and 80±11% | 96% | 99% | 19% | 62% | 5% | 8% | 0.22 µM | 0.142 s⁻¹ and 0.142 ± 0.0283 s⁻¹ | 
4 | COc1cc2ccccc2cc1[C@H]1C[C@H](O)[C@@H](COP(=O)(O)OP(=O)(O)OP(=O)(O)O)O1 [dNaMTP, reference compound] |  |  |  | 95% | 100% | 85% | 86% | 17% and 17±21% | 29% and 29±11% | 82% | 98% | 7% | 44% | 5% | 6% | 0.09 µM | 0.178 s⁻¹ | UBP retention (%) ([2]; sequence context 1 (AXT), dNaMTP or dCNMOTP 25 μM): 85%; UBP retention (%) ([2]; sequence context 1 (AXT), dNaMTP or dCNMOTP 25 μM, listed as dNaM): 85 ± 10%; UBP retention (%) ([2]; sequence context 1 (AXT), dNaMTP or dCNMOTP 125 μM): 99 ± 3%; UBP retention (%) ([2]; sequence context 2 (AXA), dNaMTP or dCNMOTP 25 μM): 36%; UBP retention (%) ([2]; sequence context 2 (AXA), dNaMTP or dCNMOTP 25 μM, listed as dNaM): 36 ± 29%; UBP retention (%) ([2]; sequence context 2 (AXA), dNaMTP or dCNMOTP 125 μM): 73%; UBP retention (%) ([2]; sequence context 2 (AXA), dNaMTP or dCNMOTP 125 μM, listed as dNaM): 73 ± 21%; UBP retention (%) ([2]; sequence context 3 (CXC), dNaMTP or dCNMOTP 25 μM): no retention; UBP retention (%) ([2]; sequence context 3 (CXC), dNaMTP or dCNMOTP 25 μM, listed as dNaM): 7 ± 2%; UBP retention (%) ([2]; sequence context 3 (CXC), dNaMTP or dCNMOTP 125 μM): 26%; UBP retention (%) ([2]; sequence context 3 (CXC), dNaMTP or dCNMOTP 125 μM, listed as dNaM): 26 ± 16%; UBP retention (%) ([2]; sequence context 4 (CXG), dNaMTP or dCNMOTP 25 μM): not retained significantly; UBP retention (%) ([2]; sequence context 4 (CXG), dNaMTP or dCNMOTP 25 μM, listed as dNaM): 9 ± 1%; UBP retention (%) ([2]; sequence context 4 (CXG), dNaMTP or dCNMOTP 125 μM): not retained significantly; UBP retention (%) ([2]; sequence context 4 (CXG), dNaMTP or dCNMOTP 125 μM, listed as dNaM): 13 ± 2%
5 | COc1cc2sccc2cc1[C@H]1C[C@H](O)[C@@H](COP(=O)(O)OP(=O)(O)OP(=O)(O)O)O1 [dPTMOTP] |  |  |  | 90% | 98% | 74% | 78% | 77% and 77±22% | 92% and 92±6% | 99% | 98% | 55% | 97% | 2% | 7% | 0.08 µM | 0.323 s⁻¹ and 0.323 ± 0.02 s⁻¹ | toxicity to cells (SSO (strain YZ3); SSO cells, concentration matrix 5-150 μM, context CXC): not toxic to cells; effective concentration can be dropped to (SSO (strain YZ3); context CXC (difficult to replicate sequences)): 100 µM; UBP retention (Avg) (SSO (strain YZ3); context CXC, dPTMOTP 5 μM, dTPT3TP 5 μM): 7%; UBP retention (Avg) (SSO (strain YZ3); context CXC, dPTMOTP 5 μM, dTPT3TP 25 μM): 7%; UBP retention (Avg) (SSO (strain YZ3); context CXC, dPTMOTP 5 μM, dTPT3TP 100 μM): 10%; UBP retention (Avg) (SSO (strain YZ3); context CXC, dPTMOTP 5 μM, dTPT3TP 150 μM): 7%; UBP retention (Avg) (SSO (strain YZ3); context CXC, dPTMOTP 25 μM, dTPT3TP 5 μM): 18%; UBP retention (Avg) (SSO (strain YZ3); context CXC, dPTMOTP 25 μM, dTPT3TP 25 μM): 59%; UBP retention (Avg) (SSO (strain YZ3); context CXC, dPTMOTP 25 μM, dTPT3TP 100 μM): 63%; UBP retention (Avg) (SSO (strain YZ3); context CXC, dPTMOTP 25 μM, dTPT3TP 150 μM): 47%; UBP retention (Avg) (SSO (strain YZ3); context CXC, dPTMOTP 100 μM, dTPT3TP 5 μM): 58%; UBP retention (Avg) (SSO (strain YZ3); context CXC, dPTMOTP 100 μM, dTPT3TP 25 μM): 89%; UBP retention (Avg) (SSO (strain YZ3); context CXC, dPTMOTP 100 μM, dTPT3TP 100 μM): 93%; UBP retention (Avg) (SSO (strain YZ3); context CXC, dPTMOTP 100 μM, dTPT3TP 150 μM): 66%; UBP retention (Avg) (SSO (strain YZ3); context CXC, dPTMOTP 150 μM, dTPT3TP 5 μM): 61%; UBP retention (Avg) (SSO (strain YZ3); context CXC, dPTMOTP 150 μM, dTPT3TP 25 μM): 103%; UBP retention (Avg) (SSO (strain YZ3); context CXC, dPTMOTP 150 μM, dTPT3TP 100 μM): 90%; UBP retention (Avg) (SSO (strain YZ3); context CXC, dPTMOTP 150 μM, dTPT3TP 150 μM): 64%

Source: US12497642B2, “Incorporation of unnatural nucleotides and methods of use in vivo thereof” (THE SCRIPPS RESEARCH INSTITUTE, priority 2017, dated 2025)
